How the values were obtained:
Format in all cases: in vivo, human
[1] = tested on: myelofibrosis; test: SIMPLIFY-1 Phase 3 trial: transfusion independence and TD to TI conversion; details: for TI rate Responders / TI rate proportion (Wilson 95% CI) / TI rate Absolute risk difference (Newcombe 95% CI): SIMPLIFY 1, week 24; for TI rate Absolute risk difference (Newcombe 95% CI) / TD to 12w rolling TI Absolute risk difference (Newcombe 95% CI) / TD to W24 TI Absolute risk difference (Newcombe 95% CI): MMB vs Control
Description: The improved outcome from MMB therapy that results from practicing the subject methods can be manifested as an improvement in one or more clinical endpoints (e.g., as described herein), such as anemia response, in spleen response and/or symptom response. By “anemia response” is meant an increase in the patient's hemoglobin level or a patient who was transfusion dependent becoming transfusion independent. Desirably, a minimum increase in hemoglobin of 0.5 g/dL, such as 1.0 g/dL 1.5 g/dL or 2.0 g/dL lasting a minimum of 8 weeks is achieved, which is the level of improvement specified in the International Working Group (IWG) consensus criteria. However, smaller, but still medically significant, increases in hemoglobin are also considered to be within the term “anemia response”. “Transfusion independence” is an anemia endpoint and refers to a subject who required no RBC transfusions over a 12 week period and had no hemoglobin levels less than 8 g/dL to 8.5 g/dL over the 12 week period. In some embodiments, the 12 week period of transfusion independence is the terminal 12 weeks of a 24 week study period. By red blood cell (RBC) transfusion independence rate at week 24 of a study is meant the proportion of subjects who were transfusion independent at week 24, excluding cases associated with clinically overt bleeding.
(§1) In the SIMPLIFY-1 trial (NCT01969838), the efficacy and safety of MMB versus ruxolitinib (RUX) was studied in patients with myelofibrosis who were naïve to treatment with a JAK inhibitor and a platelet count of ≥50×10^9/L. Patients (N=432) with high risk or intermediate-2 risk or symptomatic intermediate-1 risk myelofibrosis received 24 weeks of treatment with 200 mg MMB once daily or 20 mg RUX twice a day (or per label), after which all patients could receive open-label momelotinib. […] The primary endpoint was a reduction by at least 35% in the spleen volume at 24 weeks compared with baseline.
FIG. 8A: SIMPLIFY-1 study of MMB in a first line population previously untreated with JAKi. For SIMPLIFY-1, the goal was non-inferiority over ruxolitinib (RUX) (MMB: N=215 subjects, and RUX: N=217 subjects). FIG. 8B: SIMPLIFY-2 study of second line population of anemic or thrombocytopenic subjects previously treated with RUX (red blood cell (RBC) transfusions on RUX=64%. RUX dose adjustment for: thrombocytopenia=21%; anemia/hematoma=35%). For SIMPLIFY-2, the goal was superiority over best available treatment (BAT) (MMB: N=104 subjects, and BAT: N=52 subjects). In both SIMPLIFY-1 and SIMPLIFY: Primary endpoint: >=35% reduction in spleen volume at 24 weeks. Secondary endpoints: Total symptom score (TSS) response at 24 weeks. Effects on RBC transfusion requirements.
The SIMPLIFY 1 clinical trial data was reanalyzed for subgroups of subjects having particular baseline platelet counts in the MMB versus RUX arms of the study.
Patient data was analyzed according to the following baseline platelet count (PLT) subgroups and in particular according to the threshold PLT of 150×10^9/L: 1) PLT<50×10^9/L; 2) 50×10^9/L≤PLT<100×10^9/L; 3) 100×10^9/L≤PLT<150×10^9/L. The reanalyzed data is presented in Table 13 (SIMPLIFY 1). Selected data is also illustrated in the following figures.

[2] = tested on: myelofibrosis; test: SIMPLIFY-1 Phase 3 trial: safety (anemia, platelet counts, hemoglobin)
Experimental: as §1
The mean platelet count for RUX patients is demonstrably lower than the mean platelet count for MMB patients.
The MMB subjects were thus at lower risk of developing thrombocytopenia (e.g., Grade 3 or 4 thrombocytopenia), or of having to undergo undesirable dose reduction because they were able to largely maintain their platelet counts during therapy.

[3] = tested on: myelofibrosis; test: SIMPLIFY-2 Phase 3 trial: overall survival
Description: In the SIMPLIFY-2 trial (NCT02101268), the efficacy and safety of MMB was studied in anemic or thrombocytopenic subjects with myelofibrosis who were previously treated with ruxolitinib (RUX). […] Specifically, anemic or thrombocytopenic myelofibrosis patients who had and were previously treated with (RUX) (for at least 28 days) were studied over 24 weeks for response to MMB versus best available treatment (BAT), primarily RUX (89% of patients) but alternatively no treatment or other standard interventions, after which period all patients could receive extended MMB treatment. Previously treated RUX patients who either required red blood cell transfusions or RUX dose reduction with grade 3 thrombocytopenia, anemia, and/or bleeding at grade 3 or worse, with palpable spleen of at least 5 cm and without grade 2 or greater peripheral neuropathy were included in the trial. There was no lower limit for the required baseline platelet count. The primary endpoint was a reduction by at least 35% in the spleen volume at 24 weeks compared with baseline.

[4] = SIMPLIFY 1, 50 ≤ PLT < 100 ×10^9/L
[5] = SIMPLIFY 1, 100 ≤ PLT < 150 ×10^9/L
[6] = SIMPLIFY-1, switch from Transfusion Dependent to Independent

Compound: Cl.N#CCNC(=O)c1ccc(-c2ccnc(Nc3ccc(N4CCOCC4)cc3)n2)cc1 [MMB, N-(cyanomethyl)-4-(2-(4-morpholinophenylamino)pyrimidin-4-yl)benzamide]
- patients with transfusion independence promoted and maintained (TI rate) ([1]; SIMPLIFY 1): 66%
- TI rate Responders ([1]; 50 ≤ PLT < 100 ×10^9/L): 11
- TI rate proportion (Wilson 95% CI) ([1]; 50 ≤ PLT < 100 ×10^9/L): 0.61
- TI rate Absolute risk difference (Newcombe 95% CI) ([1]; 50 ≤ PLT < 100 ×10^9/L): 0.22
- TI rate Responders ([1]; 100 ≤ PLT < 150 ×10^9/L): 18
- TI rate proportion (Wilson 95% CI) ([1]; 100 ≤ PLT < 150 ×10^9/L): 0.62
- TI rate Absolute risk difference (Newcombe 95% CI) ([1]; 100 ≤ PLT < 150 ×10^9/L): 0.17
- TI rate Responders ([1]; ITT): 143
- TI rate proportion (Wilson 95% CI) ([1]; ITT): 0.67
- TI rate Absolute risk difference (Newcombe 95% CI) ([1]; ITT): 0.17
- TD to 12w rolling TI Responders [1, 4]: 4
- TD to 12w rolling TI proportion (Wilson 95% CI) [1, 4]: 0.40
- TD to W24 TI Responders [1, 4]: 5
- TD to W24 TI proportion (Wilson 95% CI) [1, 4]: 0.50
- TD to 12w rolling TI Absolute risk difference (Newcombe 95% CI) [1, 4]: 0.22
- TD to W24 TI Absolute risk difference (Newcombe 95% CI) [1, 4]: 0.32
- TD to 12w rolling TI Responders [1, 5]: 5
- TD to 12w rolling TI proportion (Wilson 95% CI) [1, 5]: 0.45
- TD to W24 TI Responders [1, 5]: 4
- TD to W24 TI proportion (Wilson 95% CI) [1, 5]: 0.36
- TD to 12w rolling TI Absolute risk difference (Newcombe 95% CI) [1, 5]: 0.15
- TD to W24 TI Absolute risk difference (Newcombe 95% CI) [1, 5]: 0.21
- TD to 12w rolling TI Responders ([1]; SIMPLIFY 1, ITT): 19
- TD to 12w rolling TI proportion (Wilson 95% CI) ([1]; SIMPLIFY 1, ITT): 0.36
- TD to W24 TI Responders ([1]; SIMPLIFY 1, ITT): 16
- TD to W24 TI proportion (Wilson 95% CI) ([1]; SIMPLIFY 1, ITT): 0.30
- TD to 12w rolling TI Absolute risk difference (Newcombe 95% CI) ([1]; SIMPLIFY 1, ITT): 0.11
- TD to W24 TI Absolute risk difference (Newcombe 95% CI) ([1]; SIMPLIFY 1, ITT): 0.13
- Week 24 TI rate ([1]; SIMPLIFY 1, ITT, all patients): 67%
- Week 24 TI rate ([1]; SIMPLIFY 1, ITT, platelets 50-100 (subgroup 2)): 61%
- Week 24 TI rate ([1]; SIMPLIFY 1, ITT, platelets 100-150 (subgroup 3)): 62%
- Week 24 TI rate ([1]; SIMPLIFY 1, baseline TSS ≥ 6, all patients): 67%
- Week 24 TI rate ([1]; SIMPLIFY 1, baseline TSS ≥ 6, platelets 50-100 (subgroup 2)): 64%
- Week 24 TI rate ([1]; SIMPLIFY 1, baseline TSS ≥ 6, platelets 100-150 (subgroup 3)): 68%
- Week 24 TI rate ([1]; SIMPLIFY 1, baseline TSS ≥ 10, all patients): 67%
- Week 24 TI rate ([1]; SIMPLIFY 1, baseline TSS ≥ 10, platelets 50-100 (subgroup 2)): 64%
- Week 24 TI rate ([1]; SIMPLIFY 1, baseline TSS ≥ 10, platelets 100-150 (subgroup 3)): 68%
- ≥8 week transfusion independence rate [1, 6]: 58.5%
- ≥12 week transfusion independence rate [1, 6]: 49.1%
- anemia rate ([2]; SIMPLIFY 1): 14%
- ≥Grade 3 anemia rate ([2]; SIMPLIFY 1): 6%
- platelet counts during treatment ([2]; SIMPLIFY 1, 24 week double blind phase, FIGS. 31-33): able to maintain platelet levels
- hemoglobin change ([2]; SIMPLIFY 1, after initiating MMB, FIG. 10): rapid and sustained hemoglobin improvement
- mOS [3]: 28 months

From patent US11963962B2, “Platelet count-agnostic methods of treating myelofibrosis” (Sierra Oncology, Inc., priority 2018, dated 2024)
